Paper PMC5719359 (Scientific Reports, 2017)

Biological target: T1, tubulin (Sus scrofa, UniProt P02550+P02554)
T1 construct: purified porcine tubulin; with alpha-tubulin (alpha/beta heterodimer)
Experiment: fluorescence colchicine competition assay; the IC50 is from the in vitro tubulin polymerization assay
Type: biochemical

## COc1cc(OC)cc(N2CCN(C(=O)c3n[nH]nc3-c3ccccc3Cl)CC2)c1 [7p]
  IC50: 2.06 µM
